Details: Liquid, Frequency=8 MHz, Pulse-echo method

CC(O)CO (stereo not drawn) [1,2-propanediol]
Details | speed of sound [m/s]
303.15 K, 99 kPa | 1494.4
303.15 K, 5091 kPa | 1513.5
303.15 K, 10060 kPa | 1532
303.15 K, 15098 kPa | 1550.2
303.15 K, 20084 kPa | 1567.7
303.15 K, 25068 kPa | 1584.7
303.15 K, 30167 kPa | 1601.6
313.15 K, 99 kPa | 1465.9
313.15 K, 5014 kPa | 1485.5
313.15 K, 10053 kPa | 1504.8
313.15 K, 15011 kPa | 1523.2
313.15 K, 20095 kPa | 1541.5
313.15 K, 25202 kPa | 1559.4
313.15 K, 30222 kPa | 1576.5
333.15 K, 100 kPa | 1408.9
333.15 K, 5039 kPa | 1429.7
333.15 K, 10054 kPa | 1450.1
333.15 K, 15107 kPa | 1469.8
333.15 K, 20131 kPa | 1489
333.15 K, 25131 kPa | 1507.4
333.15 K, 30024 kPa | 1524.9
353.15 K, 99 kPa | 1350.9
353.15 K, 5042 kPa | 1373
353.15 K, 10055 kPa | 1394.6
353.15 K, 15135 kPa | 1415.6
353.15 K, 20093 kPa | 1435.5
353.15 K, 25086 kPa | 1454.8
353.15 K, 30207 kPa | 1474.1

OCCO [1,2-ethanediol]
Details | speed of sound [m/s]
273.15 K, 99 kPa | 1713.8
273.15 K, 5204 kPa | 1727.5
273.15 K, 10344 kPa | 1740.9
273.15 K, 15152 kPa | 1753.2
273.15 K, 20194 kPa | 1765.9
273.15 K, 25132 kPa | 1778.1
273.15 K, 30171 kPa | 1789.9
293.15 K, 99 kPa | 1665.8
293.15 K, 5051 kPa | 1679.8
293.15 K, 10070 kPa | 1693.5
293.15 K, 15176 kPa | 1707.2
293.15 K, 20158 kPa | 1720.2
293.15 K, 25108 kPa | 1732.9
293.15 K, 30024 kPa | 1745.3
313.15 K, 100 kPa | 1618.5
313.15 K, 5031 kPa | 1633.1
313.15 K, 10028 kPa | 1647.3
313.15 K, 15117 kPa | 1661.7
313.15 K, 20088 kPa | 1675.3
313.15 K, 25102 kPa | 1688.7
313.15 K, 29983 kPa | 1701.6
333.15 K, 99 kPa | 1570.7
333.15 K, 5054 kPa | 1586.1
333.15 K, 10048 kPa | 1601.1
333.15 K, 15067 kPa | 1615.8
333.15 K, 20106 kPa | 1630.3
333.15 K, 25103 kPa | 1644.3
333.15 K, 29958 kPa | 1657.7
353.15 K, 100 kPa | 1521.8
353.15 K, 5079 kPa | 1538.1
353.15 K, 10048 kPa | 1553.8
353.15 K, 15054 kPa | 1569.3
353.15 K, 20071 kPa | 1584.4
353.15 K, 25078 kPa | 1599.1
353.15 K, 29995 kPa | 1613.3

— the NIST ThermoML archive (doi:10.1016/j.jct.2016.06.001)
